Measurements taken from patent US20260200928A1, “THERAPEUTIC COMPOUNDS” (Sanofi, priority 2022, published 2026).
Structures can show the parent of a compound that is named as a salt.

Biological target: T1, human IL-17A (Homo sapiens, UniProt Q16552)
T1 construct: purchased R&D Systems 7955-IL/CF
T1 sequence (Q16552 24-155): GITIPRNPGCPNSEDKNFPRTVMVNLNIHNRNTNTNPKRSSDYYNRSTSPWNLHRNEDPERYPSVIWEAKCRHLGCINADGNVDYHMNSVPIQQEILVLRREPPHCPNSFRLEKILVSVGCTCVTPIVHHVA
Assay: IL-17A AlphaLISA competition assay (block of IL-17A binding to its receptor IL-17RA)
Conditions: mean IC50 (n≥2), block of IL-17A binding to IL-17RA
Procedure: The ability of the compounds to block binding of IL-17A to its receptor, IL-17RA, was analysed in a competition assay using AlphaLISA technology (Perkin Elmer). The assay is a bead based AlphaLISA where the IL-17RA is captured on the acceptor bead via an Fc tag and IL-17A is captured on the streptavidin donor bead via a biotinylated anti-IL17A antibody.
Assay buffer was prepared by adding 0.05% Tween-20 (v/v) and 0.1% BSA to Phosphate Buffered Saline (PBS). The assay was carried out in 384-well white low volume plates (Perkin Elmer #6008359). 10 μL of a 7.5 nM stock of human recombinant IL-17A (R&D Systems 7955-IL/CF) diluted in assay buffer was dispensed into the assay plate and compounds or DMSO vehicle control were added in a volume of 75 nL using an acoustic dispenser (Beckman). The compounds were pre-incubated with the IL-17A for 30 min at room temperature prior to addition of 5 μL of a 5 nM stock of human recombinant IL-17RA/Fc chimera (R&D Systems 177-IR-100) diluted in assay buffer. The IL-17A was incubated with the receptor for a further 90 minutes at room temperature before addition of 5 μL of a mixture of anti-human Fc IgG acceptor beads (75 μg/mL, Perkin Elmer AL1030) and anti-IL-17A biotin conjugated antibody (5 nM, Abcam, #ab155575) in assay buffer. After a further 30 min incubation at room temperature, 5 μL of streptavidin donor beads (75 μg/mL, Perkin Elmer 6760002S) were added and the plate was incubated for 3 h in the dark.
The AlphaLisa signal was measured using the PheraSTAR plate reader (BMG). Data were analysed using GeneData Screener and fitted to a 4-parameter logistic equation. The IC50 values were calculated using the DMSO vehicle as the negative control and a high concentration (4 μM) of a reference IL-17A inhibitor as the positive control. All compounds were analysed at least in duplicate (n≥2).

SMILES | IC50 [nM]
COCC(c1ccnc(NC(=O)[C@@H](NC(=O)c2ncccc2C)[C@H]2CC[C@H](C)CC2)c1)N1C[C@@H](C(F)(F)F)NC1=O (stereo partly drawn) [Example 98, N-((1S)-2-((4-(2-Methoxy-1-((S)-2-oxo-4-(trifluoromethyl)imidazolidin-1-yl)ethyl)pyridin-2-yl)amino)-1-((1r,4S)-4-methylcyclohexyl)-2-oxoethyl)-3-methyl-picolinamide] | 1960
Cc1cnn(C)c1Cc1ccnc(NC(=O)C(NC(=O)c2ccnn2C)C2CCC(F)(F)CC2)c1 (stereo not shown) [Example 53] | 3880
Cn1nccc1C(=O)N[C@H](C(=O)Nc1cc(CN2C[C@@H](C(F)(F)F)NC2=O)c(F)cn1)[C@H]1CC[C@H](C)CC1 [Example 64, N-((S)-2-((5-fluoro-4-(((S)-2-oxo-4-(trifluoromethyl)-imidazolidin-1-yl)methyl)-pyridin-2-yl)amino)-1-((1r,4S)-4-methylcyclo-hexyl)-2-oxoethyl)-1-methyl-1H-pyrazole-5-carboxamide] | 1230
Cn1nccc1C(=O)N[C@H](C(=O)Nc1cc(CN2C[C@@H](C(F)(F)F)NC2=O)ccn1)C1CCC(F)(F)CC1 [Example 9, N-((S)-1-(4,4-difluorocyclohexyl)-2-oxo-2-((4-(((S)-2-oxo-4-(trifluoromethyl)imidazolidin-1-yl)methyl)pyridin-2-yl)amino)ethyl)-1-methyl-1H-pyrazole-5-carboxamide] | 422
CCc1ncoc1C(=O)NC(C(=O)Nc1cc(C[C@H]2C[C@@H](C(F)(F)F)NC2=O)ccn1)C1CCC(F)(F)CC1 (stereo in doubt) [Example 217, N—((S)-1-(4,4-difluorocyclohexyl)-2-oxo-2-((4-(((3S,5S)-2-oxo-5-(trifluoro-methyl)pyrrolidin-3-yl)methyl)pyridin-2-yl)amino)ethyl)-4-ethyloxazole-5-carboxamide] | 465
CCc1conc1C(=O)N[C@H](C(=O)Nc1cc([C@@H](COC)N2C[C@@H](C(F)(F)F)NC2=O)ccn1)C1CC(F)(F)C1 [Example 261, N—((S)-1-(3,3-difluorocyclobutyl)-2-((4-((S)-2-methoxy-1-((S)-2-oxo-4-(trifluoromethyl)imidazolidin-1-yl)ethyl)pyridin-2-yl)amino)-2-oxoethyl)-4-ethylisoxazole-3-carboxamide] | 189
CC(C)c1nocc1C(=O)N[C@H](C(=O)Nc1cc(CN2C[C@@H](C(F)(F)F)NC2=O)ccn1)C1CCC(F)(F)CC1 [Example 21, N-((S)-1-(4,4-difluorocyclohexyl)-2-oxo-2-((4-(((S)-2-oxo-4-(trifluoro-methyl)imidazolidin-1-yl)methyl)pyridin-2-yl)amino)ethyl)-3-isopropyl-isoxazole-4-carboxamide] | 138
CCc1nocc1C(=O)NC(C(=O)Nc1cc([C@@H](COC)N2C[C@@H](C(F)(F)F)NC2=O)ccn1)C1CCC(F)CC1 (single isomer, unassigned) [Example 286] | 40
CC1(C)CN(Cc2ccnc(NC(=O)[C@@H](NC(=O)OC(C)(C)C)[C@H]3CC[C@H](C)CC3)c2)C(=O)N1 [Example 24, Tert-butyl ((S)-2-((4-((4,4-dimethyl-2-oxoimidazolidin-1-yl)methyl)pyridin-2-yl)amino)-1-((1r,4S)-4-methylcyclohexyl)-2-oxoethyl)carbamate] | 1050
COCC(NC(=O)CCC(F)(F)F)c1ccnc(NC(=O)C(NC(=O)c2ccnn2C)C2CCC(C)CC2)c1 [Example 245, N-((1S)-2-((4-(2-methoxy-1-(4,4,4-trifluorobutanamido)ethyl)pyridin-2-yl)amino)-1-((1r,4S)-4-methylcyclohexyl)-2-oxoethyl)-1-methyl-1H-pyrazole-5-carboxamide] | 73
COC[C@H](c1ccnc(NC(=O)C(NC(=O)c2ccnn2C(C)C)C2CCC(F)CC2)c1)N1C[C@@H](C(F)(F)F)NC1=O (single isomer, unassigned) [Example 289] | 125
COC[C@H](c1ccnc(NC(=O)[C@@H](NC(=O)c2ccnn2C)C2CCC(F)(F)CC2)c1)N1CC(F)(F)CNC1=O [Example 180, N-((S)-2-((4-((S)-1-(5,5-difluoro-2-oxotetrahydropyrimidin-1(2H)-yl)-2-methoxyethyl)pyridin-2-yl)amino)-1-(4,4-difluorocyclohexyl)-2-oxoethyl)-1-methyl-1H-pyrazole-5-carboxamide] | 73
COC[C@H](c1ccnc(NC(=O)[C@@H](NC(=O)c2nonc2C)C(C2CC2)C2CC2)c1)N1C[C@@H](C(F)(F)F)NC1=O [Example 226, N—((S)-1,1-Dicyclopropyl-3-((4-((S)-2-methoxy-1-((S)-2-oxo-4-(trifluoro-methyl)imidazolidin-1-yl)ethyl)pyridin-2-yl)amino)-3-oxopropan-2-yl)-4-methyl-1,2,5-oxadiazole-3-carboxamide] | 42
COC[C@H](c1ccnc(NC(=O)[C@@H](NC(=O)c2ccnn2C)C(C2CC2)C2CC2)c1)N1C[C@@H](C(F)(F)F)NC1=O [Example 228, N-((S)-1,1-dicyclopropyl-3-((4-((S)-2-methoxy-1-((S)-2-oxo-4-(trifluoromethyl)imidazolidin-1-yl)ethyl)pyridin-2-yl)amino)-3-oxopropan-2-yl)-1-methyl-1H-pyrazole-5-carboxamide] | 62
O=C(N[C@H](C(=O)Nc1cc(CN2C[C@@H](C(F)(F)F)NC2=O)ccn1)C1CCC(F)(F)CC1)c1ccnn1C1CC1 [Example 14, 1-cyclopropyl-N-((S)-1-(4,4-difluorocyclohexyl)-2-oxo-2-((4-(((S)-2-oxo-4-(trifluoromethyl)imidazolidin-1-yl)methyl)pyridin-2-yl)amino)ethyl)-1H-pyrazole-5-carboxamide] | 333
COC[C@H](c1ccnc(NC(=O)C(NC(=O)c2nonc2C2CC2)C2CCC(F)CC2)c1)N1C[C@@H](C(F)(F)F)NC1=O (single isomer, unassigned) [Example 279] | 12000
C[C@H]1CC[C@H]([C@H](NC(=O)c2ccnn2CCC(O)C(F)(F)F)C(=O)Nc2cc(CN3C[C@@H](C(F)(F)F)NC3=O)ccn2)CC1 (single isomer, unassigned) [Example 69] | 126
COCC(NC(=O)CCC(F)(F)F)c1ccnc(NC(=O)[C@@H](NC(=O)c2ccnn2C(C)C)C2CCC(F)(F)CC2)c1 (single isomer, unassigned) [Example 137] | 197
NCC1(c2nocc2C(=O)N[C@H](C(=O)Nc2cc(CN3C[C@@H](C(F)(F)F)NC3=O)ccn2)C2CCC(F)(F)CC2)CC1 [Example 22, 3-(1-(Aminomethyl)cyclopropyl)-N—((S)-1-(4,4-difluorocyclohexyl)-2-oxo-2-((4-(((S)-2-oxo-4-(trifluoromethyl)imidazolidin-1-yl)methyl)pyridin-2-yl)amino)ethyl)isoxazole-4-carboxamide HCl salt] | 9230
CCc1nocc1C(=O)N[C@H](C(=O)Nc1cc([C@@H](COC)N2C[C@@H](C(F)(F)F)NC2=O)ccn1)[C@H]1CCCC(F)(F)C1 (single isomer, unassigned) [Example 306] | 47
COCC(c1ccnc(NC(=O)C(NC(=O)C(F)(F)c2cc(F)cc(F)c2)C2CCC(C)CC2)c1)N1CC(C(F)(F)F)NC1=O (single isomer, unassigned) [Example 250] | 38
CCc1nonc1C(=O)N[C@H](C(=O)Nc1cc([C@@H](COC)N2C[C@@H](C(F)(F)F)NC2=O)ccn1)C1CCC(F)(F)CC1 [Example 187, N—((S)-1-(4,4-Difluorocyclohexyl)-2-((4-((S)-2-methoxy-1-((S)-2-oxo-4-(trifluoromethyl)imidazolidin-1-yl)ethyl)pyridin-2-yl)amino)-2-oxoethyl)-4-ethyl-1,2,5-oxadiazole-3-carboxamide] | 17
C[C@H]1CC[C@H]([C@H](NC(=O)c2nonc2C2CC2)C(=O)Nc2cc(CN3C[C@@H](C(F)(F)F)NC3=O)ccn2)CC1 [Example 2, 4-Cyclopropyl-N—((S)-1-((1r,4S)-4-methylcyclohexyl)-2-oxo-2-((4-(((S)-2-oxo-4-(trifluoromethyl)imidazolidin-1-yl)methyl)pyridin-2-yl)amino)ethyl)-1,2,5-oxadiazole-3-carboxamide] | 25
COC[C@H](c1ccnc(NC(=O)[C@@H](NC(=O)c2conc2C)C2CCC(Cl)CC2)c1)N1C[C@@H](C(F)(F)F)NC1=O (stereo partly drawn) [Example 313, N-((1S)-1-(4-chlorocyclohexyl)-2-((4-((S)-2-methoxy-1-((S)-2-oxo-4-(trifluoromethyl)imidazolidin-1-yl)ethyl)pyridin-2-yl)amino)-2-oxoethyl)-3-methylisoxazole-4-carboxamide] | 109
COCC(c1ccnc(NC(=O)C(NC(=O)Cc2cc(C)on2)C2CCC(C)CC2)c1)N1CC(C(F)(F)F)NC1=O (single isomer, unassigned) [Example 253] | 106
